Measurements reported in patent publication US9376705B2, “Method for detecting susceptibility of microorganisms to chemical agents” (Idmic SA, priority 2012, dated 2016).

Key:
Assay type in all cases: cell-based
[1] = test system: Escherichia coli strain susceptible to ampicillin and ceftriaxone; test: Susceptibility testing by MALDI-TOF mass spectra of culture supernatant, Escherichia coli strain susceptible to ampicillin and ceftriaxone; settings: treatment with 8 mg/L; susceptible E. coli strain; FIG. 2
Experimental: (§1) In a first process step 10, approximately ten colonies of microorganisms of the bacterial type Enterobacteriaceae are added to 1 mL of a liquid Müller-Hinton broth nutrient medium. The turbidity of the microorganisms in the liquid nutrient medium is 0.5 on McFarland standards, corresponding to approximately 1.5×10^8 colony forming units/mL.
(§2) In a second process step 20, 5 μL of 5-25 mM, especially 25 mM of a water-soluble salt of malic acid or ascorbic acid, for example sodium malate as an enhancer for Enterobacteriaceae family bacteria is added into the liquid nutrient medium. The enhancer may also be added into the liquid nutrient medium in solid form.
(§3) In a third process step 30, the microorganisms in the nutrient medium are pre-incubated at 37° C. for 30 minutes.
(§4) In a fourth process step 40, a quantity of a chemical agent or antibiotic equal to the threshold level of the given microorganism according to the Clinical and Laboratory Standards Institute is added to the microorganisms in the liquid nutrient medium.
(§5) In a fifth process step 50, the microorganisms in the nutrient medium are incubated at 37° C. for 60 minutes.
(§6) In a sixth process step 60, the microorganisms are removed from the nutrient medium by centrifugation at 10′000 g or 15′000 g for 5 minutes at room temperature. The remaining supernatant is collected in a new experimental tube. […]

[2] = test system: Escherichia coli strain resistant to ampicillin and ceftriaxone; test: Susceptibility testing by MALDI-TOF mass spectra of culture supernatant, Escherichia coli strain resistant to ampicillin and ceftriaxone; settings: treatment with 8 mg/L; resistant E. coli strain; FIG. 3
Experimental: as §1, §2, §3, §4, §5, §6

[3] = test system: Citrobacter ssp strain susceptible to ampicillin and ceftriaxone; test: Susceptibility testing by MALDI-TOF mass spectra of culture supernatant, Citrobacter ssp strain susceptible to ampicillin and ceftriaxone; settings: treatment with 8 mg/L, FIG. 4
Experimental: as §1, §2, §3, §4, §5, §6

Row | Structure (SMILES) | effect on bacteria as seen in mass spectrum of supernatant (protein/peptide signals) [1] | effect on bacteria as seen in mass spectrum of supernatant (protein/peptide signals) [2] | effect on bacteria as seen in mass spectrum of supernatant (protein/peptide signals) [3]
1 | CO/N=C(\C(=O)N[C@@H]1C(=O)N2C(C(=O)O)=C(CSc3nc(=O)c(=O)[nH]n3C)CS[C@H]12)c1csc(N)n1 [ceftriaxone] | has been destroyed | no further significant signal | has been destroyed
2 | CC1(C)S[C@@H]2[C@H](NC(=O)[C@H](N)c3ccccc3)C(=O)N2[C@H]1C(=O)O [ampicillin] | has been destroyed | no further significant signal | has been destroyed
